These results are taken from patent publication EP0390515A1, “Novel adenine derivatives and their use as agents for increasing crop yields” (MITSUBISHI GAS CHEMICAL COMPANY, INC., priority 1989, dated 1990).

This assay deals with leaf section of wheat. In words: Activity on leaf section of wheat (senescence retardation, chlorophyll retention). The class given is cell-based, wheat [var.: Yukichabo (Triticum astivum)]. The conditions noted are these: wheat leaf sections, 25°C, 4 days, dark. As for the experimental part:
Seeds of wheat [var.: Yukichabo (Triticum astivum)] were sown in vermiculite packed in a seed-bed box and were sprouted by keeping them at 28°C for 2 days in the dark. The seedlings wera grown at 25°C for 5 days under irradiation with light of 1500 Lx. When they grew to a length of 12 - 13 cm, a portion having a length of 1 cm was cut off from the leaf in the region 2 - 5 cm from the tip of the first true leaf. Five of the leaf sections as one group were floated with the upper surface of the leaf being uppermost on the surface of aqueous solution (2 ml) of a given concentration of the candidate compound or benzyladenine contained in a glass tubular bottle 32 mm in inner diameter. These were placed at 25°C for 4 days in the dark and thereafter, these leaf sections were put in a test tube containing 10 ml of 80% ethanol and this test tube was immersed in a water bath at 80°C for 20 minutes to extract chlorophyll. After cooling, 80% ethanol was added to make up to 10 ml and absorbance at 665 nm was measured. Senescence retardation was determined according to the degree of retention of chlorophyll. For the untreated group, water was used in place of the aqueous solution of candidate compound.

Structures are written as SMILES.

In the case of `c1ccc(CNc2ncnc3nc[nH]c23)cc1` [Benzyladenine, 6-benzylaminopurine, reference compound], the “The senescence retardation (%)” value (0.0001 mg/l) amounted to 7%; the “The senescence retardation (%)” value (0.001 mg/l) worked out at 15%; the “The senescence retardation (%)” value (0.01 mg/l) came to 50%; the “The senescence retardation (%)” value (0.1 mg/l) was found to be 55%; the “The senescence retardation (%)” value (1.0 mg/l) is listed as 74%; the “The senescence retardation (%)” value (10 mg/l) was 75%.

Take `CON(C)CCNc1ncnc2nc[nH]c12` [MAED, N⁶-[2-(N-methoxy-N-methylamino)ethyl]adenine]: the “The senescence retardation (%)” value runs as follows: (0.0001 mg/l) 4%; (0.001 mg/l) 14%; (0.01 mg/l) 43%; (0.1 mg/l) 56%; (1.0 mg/l) 58%; (10 mg/l) 76%.
